Reference: patent publication USRE48461E1, “Modulation of androgen receptor expression” (Ionis Pharmaceuticals, Inc., priority 2012, dated 2021)
e = 2'-O-(2-methoxyethyl) (MOE); d = 2'-deoxy (DNA)

What was measured:
[1] = cynomolgus monkey, in vivo, sc, 40 mg/kg
[2] = cynomolgus monkey, in vivo, sc, 40 mg/kg; remark: listed apart in the source
Method: Prior to the study, the monkeys were kept in quarantine for a 30-day period, during which the animals were observed daily for general health. The monkeys were 2-4 years old and weighed between 2 and 4 kg. Thirteen groups of four randomly assigned male cynomolgus monkeys each were injected subcutaneously with ISIS oligonucleotide or PBS. PBS solution or ISIS oligonucleotides, at a dose of 40 mg/kg, were administered with a loading regimen consisting of four doses on the first week of the study (days 1, 3, 5, and 7), followed by a maintenance regimen consisting of once weekly administration starting on Day 14 (weeks 2 to 6). Subcutaneous injections were performed in clock-wise rotations at 4 sites on the back; one site per dose. The injection sites were delineated by tattoo, while sedated using ketamine, and were separated by a minimum of 3 cm.
To evaluate the effect of ISIS oligonucleotides on kidney function, the monkeys were fasted overnight. Approximately, 1.5 mL of blood samples were collected from all the study groups on day 44. Blood was collected in tubes without anticoagulant for serum separation. The tubes were kept at room temperature for a minimum of 90 min and then centrifuged at 3,000 rpm for 10 min. Levels of BUN and creatinine were measured using a Toshiba 120FR NEO chemistry analyzer (Toshiba Co., Japan).

[3] = cynomolgus monkey, in vivo, sc, 40 mg/kg; remark: listed apart in the source
[4] = cynomolgus monkey, in vivo, sc, 40 mg/kg; remark: listed apart in the source
[5] = cynomolgus monkey, in vivo, sc, 40 mg/kg; remark: listed apart in the source
C4-2B MR cells = test: Proliferation of MDV3100-resistant C4-2B cells (CellTiter 96); assay type: cell-based, human; details: 6 days
Method: ISIS 549372, ISIS 549434, ISIS 549458, and ISIS 554221 were each added to the culture media at 0.04 μM, 0.20 μM, 1.00 μM, and 5.00 μM concentration of antisense oligonucleotide. ISIS 347526 was included as a negative control. After a treatment period of 6 days, the proliferative capacity of the cancer cells was measured with using CellTiter 96® AQueous One Solution Cell Proliferation kit (Promega), following the manufacturer's instructions. Results are presented in Table 41 as percent inhibition of proliferation, relative to non-treated cells.

KLK2 mRNA = KLK2 mRNA (AR target gene) in C4-2B MR cells; assay type: cell-based, human
KLK3 mRNA = KLK3 mRNA (AR target gene) in C4-2B MR cells; assay type: cell-based, human
total AR mRNA = test: Total (full-length) AR mRNA in C4-2B MR cells, free uptake; assay type: cell-based, human; details: free uptake, 24 hrs
Method: Cells were plated at a density of 40,000 cells per well in 96-well plates and cultured in RPMI1640 medium with 10% fetal bovine serum. […] ISIS 549372, ISIS 549458, ISIS 549434, and ISIS 554221 were each added at 0.04 μM, 0.20 μM, 1.00 μM, and 5.00 μM concentrations of antisense oligonucleotide to culture media for free uptake by the cells. […] After a treatment period of 24 hrs, total AR mRNA levels were measured by quantitative real-time PCR using primer probe set RTS3559.

TGATTTAATGGTTGCA [ISIS 569213] (cEt/MOE gapmer chemistry, further chemistry not given here)
Body Wt [1]: 2.4 kg
Heart weight [1]: 8.3 g
Kidney weight [1]: 16 g
Liver weight [1]: 69 g
Mesenteric lymph nodes weight [1]: 2.4 g
Spleen weight [1]: 5.3 g
Plasma BUN [2]: 29.4 mg/dL
Plasma Creatinine [2]: 0.91 mg/dL
ALT [3]: 47 IU/L
AST [3]: 80 IU/L
Albumin [3]: 3.7 g/dL
HCT [4]: 42%
Hemoglobin [4]: 12.5 g/dL
Platelets [4]: 426000 µL
RBC [4]: 5.6e+06 µL
WBC [4]: 12900 µL
C3 (% of baseline) [5]: 60 % of baseline
CRP [5]: 2.8 mg/dL

347526 (TCTTATGTTTCCGAACCGTT; sugars from the 5' end e5 d10 e5, backbone and methylation of C not given here) [compound 347526]
Percent inhibition of C4-2B MR cell proliferation (C4-2B MR cells; 0.04 μM): 11%
Percent inhibition of C4-2B MR cell proliferation (C4-2B MR cells; 0.20 μM): 22%
Percent inhibition of C4-2B MR cell proliferation (C4-2B MR cells; 1.00 μM): 7%
Percent inhibition of C4-2B MR cell proliferation (C4-2B MR cells; 5.00 μM): 16%
Percent inhibition of KLK2 mRNA in C4-2B MR cells (KLK2 mRNA; 0.04 μM): 28%
Percent inhibition of KLK2 mRNA in C4-2B MR cells (KLK2 mRNA; 0.20 μM): 29%
Percent inhibition of KLK2 mRNA in C4-2B MR cells (KLK2 mRNA; 1.00 μM): 23%
Percent inhibition of KLK2 mRNA in C4-2B MR cells (KLK2 mRNA; 5.00 μM): 22%
Percent inhibition of KLK3 mRNA in C4-2B MR cells (KLK3 mRNA; 0.04 μM): 5%
Percent inhibition of KLK3 mRNA in C4-2B MR cells (KLK3 mRNA; 0.20 μM): 38%
Percent inhibition of KLK3 mRNA in C4-2B MR cells (KLK3 mRNA; 1.00 μM): 42%
Percent inhibition of KLK3 mRNA in C4-2B MR cells (KLK3 mRNA; 5.00 μM): 16%
Percent inhibition of full-length AR mRNA in C4-2B MR cells (total AR mRNA; 0.04 μM): 28%
Percent inhibition of full-length AR mRNA in C4-2B MR cells (total AR mRNA; 0.20 μM): 35%
Percent inhibition of full-length AR mRNA in C4-2B MR cells (total AR mRNA; 1.00 μM): 31%
Percent inhibition of full-length AR mRNA in C4-2B MR cells (total AR mRNA; 5.00 μM): 17%
